Data: patent US5075299A, “Cephalosporin compounds and antibacterial agents” (Meiji Seika Kaisha, Ltd., priority 1988, dated 1991)
Converted amounts (≈) assume the structure as drawn. Read-outs that look alike come from different tables or passages of the source.

Tests used:
Proteus rettgeli GN624 = test: antibacterial activity, agar dilution method; type: cell-based; settings: read-out: Antibacterial Activity MIC
[1] = system: Staphylococcus aureus 606 E-25; test: antibacterial activity, agar dilution method; type: cell-based
[2] = system: Serratia marcescens GN629; test: antibacterial activity, agar dilution method; type: cell-based
[3] = system: Pseudomonas aeruginosa IAM-1007; test: antibacterial activity, agar dilution method; type: cell-based
Escherichia coli GN206 = test: antibacterial activity, agar dilution method; type: cell-based
[4] = system: Escherichia coli W3630 RGN238; test: antibacterial activity, agar dilution method; type: cell-based; settings: W3630RGN238, read-out: Antibacterial Activity MIC
[5] = system: Pseudomonas aeruginosa MB3833; test: antibacterial activity, agar dilution method; type: cell-based
[6] = system: Citrobacter froindii GN346; test: antibacterial activity, agar dilution method; type: cell-based
[7] = system: Klebsiella pneumoniae GN118; test: antibacterial activity, agar dilution method; type: cell-based
mice = test: acute toxicity using mice; type: in vivo; settings: dose of 2 g/kg by intravenous injection
Description: Acute toxicity of the compound of Example 2 was examined using mice.

[8] = Proteus rettgeli GN624, agar dilution method
[9] = 606E25, Staphylococcus aureus 606 E-25, agar dilution method, read-out: Antibacterial Activity MIC
[10] = Serratia marcescens GN629, agar dilution method, read-out: Antibacterial Activity MIC
[11] = IAM1007, Pseudomonas aeruginosa IAM-1007, agar dilution method, read-out: Antibacterial Activity MIC
[12] = Escherichia coli GN206, agar dilution method, read-out: Antibacterial Activity MIC
[13] = Pseudomonas aeruginosa MB3833, agar dilution method, read-out: Antibacterial Activity MIC
[14] = Citrobacter froindii GN346, agar dilution method, read-out: Antibacterial Activity MIC
[15] = Klebsiella pneumoniae GN118, agar dilution method, read-out: Antibacterial Activity MIC
[16] = Klebsiella pneumoniae, GN118, read-out: Antibacterial Activity MIC

Compound | MIC (Proteus rettgeli GN624; [8]) [µg/mL] | MIC [1, 9] [µg/mL] | MIC [2, 10] [µg/mL] | MIC [3, 11] [µg/mL] | MIC (Escherichia coli GN206; [12]) [µg/mL] | MIC [4] [µg/mL] | MIC [5, 13] [µg/mL] | MIC [6, 14] [µg/mL] | MIC [7, 15] [µg/mL] | MIC [7, 16] [µg/mL] | Acute toxicity (death) (mice) | MIC (Proteus rettgeli GN624) [µg/mL] | MIC ([1]; Staphylococcus aureus, 606E25, read-out: Antibacterial Activity MIC) [µg/mL] | MIC ([2]; Serratia marcescens, GN629, read-out: Antibacterial Activity MIC) [µg/mL] | MIC ([3]; Pseudomonas aeruginosa, IAM1007, read-out: Antibacterial Activity MIC) [µg/mL] | MIC (Escherichia coli GN206; Escherichia coli, GN206, read-out: Antibacterial Activity MIC) [µg/mL] | MIC ([5]; Pseudomonas aeruginosa, MB3833, read-out: Antibacterial Activity MIC) [µg/mL] | MIC ([6]; Citrobacter, GN346, read-out: Antibacterial Activity MIC) [µg/mL]
CO/N=C(\C(=O)N[C@@H]1C(=O)N2C(C(=O)O)=C(COC(C)=O)CS[C@H]12)c1csc(N)n1 [CTX, reference compound] | 1.56 (≈ 3.43 µM) | 1.56 (≈ 3.43 µM) | 0.39 (≈ 0.856 µM) | 12.5 (≈ 27.4 µM) | 1.56 (≈ 3.43 µM) | 0.2 (≈ 0.439 µM) | 12.5 (≈ 27.4 µM) | 12.5 (≈ 27.4 µM) | 0.05 (≈ 0.11 µM) |  |  |  |  |  |  |  |  | 
Cc1c(O)c(=O)cc(CO/N=C(\C(=O)NC2C(=O)N3C(C(=O)O)=C(CSc4nnnn4C)CSC23)c2csc(N)n2)n1O (stereo not shown) [Example 4, 7-((Z)-2-(2-Aminothiazol-4-yl)-2-(6-methyl-1,5-dihydroxy-4-pyridon-2-ylmethoxyimino)acetamido)-3-(1-methyl-1H-tetrazol-5-ylthiomethyl)-3-cephem-4-carboxylic acid] | 0.05 (≈ 0.0768 µM) | 25 (≈ 38.4 µM) | 0.05 (≈ 0.0768 µM) | < 0.025 | 0.1 (≈ 0.154 µM) | < 0.025 | < 0.025 | 6.25 (≈ 9.61 µM) | < 0.025 |  |  |  |  |  |  |  |  | 
Cc1cc(=O)c(O)c(CO/N=C(\C(=O)NC2C(=O)N3C(C(=O)O)=C(CSc4cnns4)CSC23)c2csc(N)n2)n1O (stereo not shown) [Example 6] | 0.1 (≈ 0.153 µM) | 1.56 (≈ 2.39 µM) | 0.2 (≈ 0.306 µM) | 0.39 (≈ 0.598 µM) | 0.78 (≈ 1.2 µM) | 0.05 (≈ 0.0766 µM) | 0.39 (≈ 0.598 µM) | 6.25 (≈ 9.58 µM) |  | < 0.025 |  |  |  |  |  |  |  | 
Cc1c(O)c(=O)cc(CO/N=C(\C(=O)NC2C(=O)N3C(C(=O)O)=C(CSc4cnns4)CSC23)c2csc(N)n2)n1O (stereo not shown) [Example 2, 7-((Z)-2-(2-Aminothiazol-4-yl)-2-(6-methyl-1,5-dihydroxy-4-pyridon-2-ylmethoxyimino)acetamido)-3-(1,2,3-thiadiazol-5-yl-thiomethyl)-3-cephem-4-carboxylic acid] | 0.1 (≈ 0.153 µM) | 12.5 (≈ 19.2 µM) | 0.05 (≈ 0.0766 µM) | < 0.025 | 0.39 (≈ 0.598 µM) | < 0.025 | < 0.025 | 6.25 (≈ 9.58 µM) | < 0.025 |  | no death was noted |  |  |  |  |  |  | 
CC(C)(O/N=C(\C(=O)N[C@@H]1C(=O)N2C(C(=O)[O-])=C(C[n+]3ccccc3)CS[C@H]12)c1csc(N)n1)C(=O)O [CAZ, reference compound] |  |  |  |  |  | 0.39 (≈ 0.714 µM) |  |  |  | 0.78 (≈ 1.43 µM) |  | 1.56 (≈ 2.85 µM) | 12.5 (≈ 22.9 µM) | 0.39 (≈ 0.714 µM) | 1.56 (≈ 2.85 µM) | 1.56 (≈ 2.85 µM) | 0.78 (≈ 1.43 µM) | 50 (≈ 91.5 µM)
